Columns and labels:
Format in all cases: cell-based, Mycobacterium tuberculosis
MmpL3 G596R = tested on: MmpL3 G596R
MmpL3 V681 = tested on: MmpL3 V681
MmpL3 F255L = tested on: MmpL3 F255L

Row | SMILES | MmpL3 G596R MIC (MmpL3 G596R) [µM] | MmpL3 V681 MIC (MmpL3 V681) [µM] | MmpL3 F255L MIC (MmpL3 F255L) [µM]
1 | CC(=O)Nc1cc(C)nn1-c1nc(-c2ccccc2)cc(=O)[nH]1 [Compound 15, N-(3-Methyl-1-(4-oxo-6-phenyl-1,4-dihydropyrimidin-2-yl)-1H-pyrazol-5-yl)acetamide] | >200 | >200 | >200
2 | Cc1cc(Nc2ccc(F)cc2)n(-c2nc(C(F)(F)F)cc(=O)[nH]2)n1 [Compound 40, 2-(5-((4-Fluorophenyl)amino)-3-methyl-1H-pyrazol-1-yl)-6-(trifluoromethyl)pyrimidin-4(3H)-one] |  |  | >200
